The assay deals with T1, Bcl-2 protein (Recombinant Human Bcl-2 Protein) (Homo sapiens, UniProt P10415).
T1 construct: purchased Novus NBP2-34889
In words: Binding evaluation of mixture library compounds to Bcl-2 using AS-MS (affinity selection mass spectrometry). As to conditions: for ASMS ratio (%) n = 1 / ASMS ratio (%) n = 2: ASMS Ratio(%)=(A−C)/B×100; for ASMS ratio (%) n = 1: replicate n = 1; for ASMS ratio (%) n = 2: replicate n = 2. Put shortly:
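Bcl-2 binding is scored from LC/MS signal retained with protein through gel-filtration spin columns, normalised to unfiltered and protein-free controls. Incubation: 20 μM protein, […] per compound, 1 h, 23° C.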

The mark [1] stands for this setting: AS-MS, mixture of 1200 compounds, Bcl-2.
The mark [2] stands for this setting: AS-MS on the mixture of 1200 library compounds.

T1 sequence (P10415 whole entry): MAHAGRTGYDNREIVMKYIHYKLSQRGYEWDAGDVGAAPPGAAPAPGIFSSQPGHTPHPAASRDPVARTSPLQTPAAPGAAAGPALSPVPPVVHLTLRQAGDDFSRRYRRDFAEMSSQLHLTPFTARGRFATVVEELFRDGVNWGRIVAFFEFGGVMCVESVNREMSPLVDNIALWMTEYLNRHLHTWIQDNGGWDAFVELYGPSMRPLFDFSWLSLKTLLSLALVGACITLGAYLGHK

For `CCOc1cncc(C#Cc2cc(C(=O)N3CCN(c4ccc(C(=O)NS(=O)(=O)c5ccc(NCCSc6ccccc6)c(C(F)(F)F)c5)cc4)CC3)cc(C(F)(F)F)c2)c1` [B2R042-01, 4-[4-[3-[2-(5-Ethoxypyridin-3-yl)ethynyl]-5-(trifluoromethyl)benzoyl]piperazin-1-yl]-N-[4-(2-phenylsulfanylethylamino)-3-(trifluoromethyl)phenyl]sulfonylbenzamide], the “ASMS ratio (%)” value runs as follows: (n = 1) 3.4%; (n = 2) 6.0%.

Regarding `CCOc1cccc(-c2ccccc2CCC(=O)N2CCN(c3ccc(C(=O)NCC45CC6CC(CC(C6)C4)C5)nn3)CC2)c1` [B1A011-01, N-(1-Adamantylmethyl)-6-[4-[3-[2-(3-ethoxyphenyl)phenyl]propanoyl]piperazin-1-yl]pyridazine-3-carboxamide], under setting [1], the “ASMS ratio (%) n = 1” value is listed as 11.2% and the “ASMS ratio (%) n = 2” value was −13.2%.

With `CCOc1cccc(-c2cnn(-c3cc(C(=O)N4CCN(c5ccc(C(=O)NS(=O)(=O)c6ccc(NCCSc7ccccc7)c([N+](=O)[O-])c6)nn5)CC4)cc(C(F)(F)F)c3)c2)c1` [B2Q021-01, 6-[4-[3-[4-(3-Ethoxyphenyl)pyrazol-1-yl]-5-(trifluoromethyl)benzoyl]piperazin-1-yl]-N-[3-nitro-4-(2-phenylsulfanylethylamino)phenyl]sulfonylpyridazine-3-carboxamide], under “AS-MS, mixture library, Bcl-2”, the “ASMS ratio (%) n = 1” value is reported as 0.0% and the “ASMS ratio (%) n = 2” value was determined as 0.0%.

For `CCOc1cccc(-c2cc(C(=O)N3CCN(c4ccc(C(=O)NS(=O)(=O)CC56CC7CC(CC(C7)C5)C6)nn4)CC3)cc(C(C)(C)C)c2)c1` [B2A015-01, N-(1-Adamantylmethylsulfonyl)-6-[4-[3-tert-butyl-5-(3-ethoxyphenyl)benzoyl]piperazin-1-yl]pyridazine-3-carboxamide], under “AS-MS, mixture library, Bcl-2”, the “ASMS ratio (%) n = 1” value was 5.9% and the “ASMS ratio (%) n = 2” value is on record as 9.7%.

Turning to `CCOc1cncc(-c2cc(CN3CCN(c4ccc(C(=O)Nc5ccc(OC)cc5)cc4)CC3)cc(OCC)c2)c1` [B1O056-01, 4-[4-[[3-Ethoxy-5-(5-ethoxypyridin-3-yl)phenyl]methyl]piperazin-1-yl]-N-(4-methoxyphenyl)benzamide], under setting [2], the “ASMS ratio (%) n = 1” value was found to be 6.7% and the “ASMS ratio (%) n = 2” value is −0.9%.

Consider `CCOc1cncc(-c2ccccc2CCC(=O)N2CCN(c3ccc(C(=O)NS(=O)(=O)c4ccc(NCCSc5ccccc5)c(C(F)(F)F)c4)cc3)CC2)c1` [B2R034-01, 4-[4-[3-[2-(5-Ethoxypyridin-3-yl)phenyl]propanoyl]piperazin-1-yl]-N-[4-(2-phenylsulfanylethylamino)-3-(trifluoromethyl)phenyl]sulfonylbenzamide], for which the “ASMS ratio (%)” value reads like this: (n = 1) 0.1%; (n = 2) −1.3%.

For the molecule `CCOc1cccc(-c2ccc(C(=O)N3CCN(c4ccc(C(=O)NS(=O)(=O)CC56CC7CC(CC(C7)C5)C6)cc4)CC3)c3ccccc23)c1` [B2A035-01, N-(1-Adamantylmethylsulfonyl)-4-[4-[4-(3-ethoxyphenyl)naphthalene-1-carbonyl]piperazin-1-yl]benzamide], where the note is “AS-MS, mixture library, Bcl-2”, the “ASMS ratio (%) n = 1” value came to 6.2% and the “ASMS ratio (%) n = 2” value is recorded as −9.8%.

For the molecule `CCOc1cncc(-c2cc(OC)c(CN3CCN(c4ccc(C(=O)Nc5ccc(OC)cc5)cc4)CC3)c(OC)c2)c1` [B1O060-01, 4-[4-[[4-(5-Ethoxypyridin-3-yl)-2,6-dimethoxyphenyl]methyl]piperazin-1-yl]-N-(4-methoxyphenyl)benzamide], under setting [2], the “ASMS ratio (%) n = 1” value is recorded as 0.6% and the “ASMS ratio (%) n = 2” value is −1.8%.

For `CCOc1cccc(-c2cnn(-c3cc(C(=O)N4CCN(c5ccc(C(=O)NS(=O)(=O)CC67CC8CC(CC(C8)C6)C7)cc5)CC4)cc(C(F)(F)F)c3)c2)c1` [B2A043-01, N-(1-Adamantylmethylsulfonyl)-4-[4-[3-[4-(3-ethoxyphenyl)pyrazol-1-yl]-5-(trifluoromethyl)benzoyl]piperazin-1-yl]benzamide], for the setting “AS-MS, mixture library, Bcl-2”, the “ASMS ratio (%) n = 1” value came out at 14.0% and the “ASMS ratio (%) n = 2” value came to 4.4%.

Take `CCOc1cncc(-c2ccc(CN3CCN(c4ccc(C(=O)NS(=O)(=O)C(C)(C)C)nn4)CC3)c3ccccc23)c1` [B2L092-01, N-tert-Butylsulfonyl-6-[4-[[4-(5-ethoxypyridin-3-yl)naphthalen-1-yl]methyl]piperazin-1-yl]pyridazine-3-carboxamide]: the “ASMS ratio (%)” value amounted to 5.5% (n = 1) and 7.8% (n = 2).

Consider `CCOc1cncc(-c2cc(C(=O)N3CCN(c4ccc(C(=O)NS(=O)(=O)c5ccc(NCCSc6ccccc6)c(C(F)(F)F)c5)nn4)CC3)cc(C(C)(C)C)c2)c1` [B2R016-01, 6-[4-[3-tert-Butyl-5-(5-ethoxypyridin-3-yl)benzoyl]piperazin-1-yl]-N-[4-(2-phenylsulfanylethylamino)-3-(trifluoromethyl)phenyl]sulfonylpyridazine-3-carboxamide], for which the “ASMS ratio (%)” value runs as follows: (n = 1) 9.1%; (n = 2) 2.7%.

Turning to “6-[4-[3-tert-Butyl-5-(3-ethoxyphenyl)benzoyl]piperazin-1-yl]-N-propylpyridazine-3-carboxamide [B1M060-01]”, under setting [1], the “ASMS ratio (%) n = 1” value is listed as 0.0% and the “ASMS ratio (%) n = 2” value is on record as 0.0%.

With `CCOc1cncc(-c2ccccc2CCC(=O)N2CCN(c3ccc(C(=O)NS(=O)(=O)CC45CC6CC(CC(C6)C4)C5)nn3)CC2)c1` [B2A012-01, N-(1-Adamantylmethylsulfonyl)-6-[4-[3-[2-(5-ethoxypyridin-3-yl)phenyl]propanoyl]piperazin-1-yl]pyridazine-3-carboxamide], where the note is “AS-MS, mixture library, Bcl-2”, the “ASMS ratio (%) n = 1” value is recorded as 1.5% and the “ASMS ratio (%) n = 2” value came to 1.9%.

With `CCOc1cncc(-c2cc(CN3CCN(c4ccc(C(=O)NS(=O)(=O)C(C)(C)C)cc4)CC3)cc(OC(C)C)c2)c1` [B2L058-01], the “ASMS ratio (%)” value runs as follows: (n = 1) 0.0%; (n = 2) 0.0%.

Take `CCOc1cncc(-c2ccc(CN3CCN(c4ccc(C(=O)NCC56CC7CC(CC(C7)C5)C6)nn4)CC3)cc2F)c1` [B1A078-01, N-(1-Adamantylmethyl)-6-[4-[[4-(5-ethoxypyridin-3-yl)-3-fluorophenyl]methyl]piperazin-1-yl]pyridazine-3-carboxamide]: under setting [1], the “ASMS ratio (%) n = 1” value is listed as 4.7% and the “ASMS ratio (%) n = 2” value came out at 1.2%.

Regarding `CCOc1cncc(-c2ccc(C(=O)N3CCN(c4ccc(C(=O)NS(=O)(=O)c5ccc(NCCSc6ccccc6)c(C(F)(F)F)c5)cc4)CC3)cc2F)c1` [B2R028-01, 4-[4-[4-(5-Ethoxypyridin-3-yl)-3-fluorobenzoyl]piperazin-1-yl]-N-[4-(2-phenylsulfanylethylamino)-3-(trifluoromethyl)phenyl]sulfonylbenzamide], the “ASMS ratio (%)” value runs as follows: (n = 1) 4.1%; (n = 2) −0.5%.

As to `CCOc1cccc(-c2cc(C(=O)N3CCN(c4ccc(C(=O)Nc5ccc(OC)cc5)cc4)CC3)cc(C(F)(F)F)c2)c1` [B1O039-01, 4-[4-[3-(3-Ethoxyphenyl)-5-(trifluoromethyl)benzoyl]piperazin-1-yl]-N-(4-methoxyphenyl)benzamide], under setting [2], the “ASMS ratio (%) n = 1” value was 5.1% and the “ASMS ratio (%) n = 2” value came to 0.2%.

Regarding `CCOc1cccc(C#Cc2cc(C(=O)N3CCN(c4ccc(C(=O)NCC56CC7CC(CC(C7)C5)C6)nn4)CC3)cc(C(F)(F)F)c2)c1` [B1A019-01, N-(1-Adamantylmethyl)-6-[4-[3-[2-(3-ethoxyphenyl)ethynyl]-5-(trifluoromethyl)benzoyl]piperazin-1-yl]pyridazine-3-carboxamide], under setting [1], the “ASMS ratio (%) n = 1” value was −3.9% and the “ASMS ratio (%) n = 2” value is −7.5%.

For the molecule `CCOc1cccc(-c2cc(C(=O)N3CCN(c4ccc(C(=O)NS(=O)(=O)c5ccc(NCCSc6ccccc6)c(C(F)(F)F)c5)cc4)CC3)cc(C(C)(C)C)c2)c1` [B2R037-01, 4-[4-[3-tert-Butyl-5-(3-ethoxyphenyl)benzoyl]piperazin-1-yl]-N-[4-(2-phenylsulfanylethylamino)-3-(trifluoromethyl)phenyl]sulfonylbenzamide], the “ASMS ratio (%)” value is 6.3% (n = 1) and −7.0% (n = 2).

For `CCOc1cccc(-c2ccc(CN3CCN(c4ccc(C(=O)NS(=O)(=O)C(C)(C)C)cc4)CC3)cc2C)c1` [B2L047-01, N-tert-Butylsulfonyl-4-[4-[[4-(3-ethoxyphenyl)-3-methylphenyl]methyl]piperazin-1-yl]benzamide], the “ASMS ratio (%)” value by setting is: (n = 1) 0.0%; (n = 2) 0.0%.

Turning to `CCOc1cncc(-c2cc(CN3CCN(c4ccc(C(=O)NS(=O)(=O)CCC(F)(F)F)nn4)CC3)cc(C(F)(F)F)c2)c1` [B2N088-01, 6-[4-[3-(5-Ethoxypyridin-3-yl)-5-(trifluoromethyl)phenylmethyl]piperazin-1-yl]-N-(3,3,3-trifluoropropylsulfonyl)pyridazine-3-carboxamide], the “ASMS ratio (%)” value reads like this: (n = 1) 0.0%; (n = 2) 0.0%.

In the case of “4-[4-[3-[4-(3-Ethoxyphenyl)pyrazol-1-yl]-5-(trifluoromethyl)benzoyl]piperazin-1-yl]-N-propylbenzamide [B1M025-01]”, under setting [1], the “ASMS ratio (%) n = 1” value was determined as 3.6% and the “ASMS ratio (%) n = 2” value is given as −1.2%.

`CCOc1cncc(-c2cc(CN3CCN(c4ccc(C(=O)N(C)CC56CC7CC(CC(C7)C5)C6)nn4)CC3)cc(OCC)c2)c1` [B3A082-01, N-(1-Adamantylmethyl)-6-[4-[[3-ethoxy-5-(5-ethoxypyridin-3-yl)phenyl]methyl]piperazin-1-yl]-N-methylpyridazine-3-carboxamide]: under setting [2], the “ASMS ratio (%) n = 1” value is −0.9% and the “ASMS ratio (%) n = 2” value is recorded as 4.4%.

The values are drawn from US20240132431A1, “METHOD FOR ALKYLATING ACIDIC FUNCTIONAL GROUP” (Chugai Seiyaku Kabushiki Kaisha, priority 2021, published 2024).
